System: cholesterol absorption
Experiment: Cholesterol Absorption Assay in Mice
Assay type: in vivo, C57BL/6 male mice
Conditions: highest dose tested (oral, 0.12-10 mg/kg range); [3H]-cholesterol counts in liver and plasma, 5 h after cholesterol dose
Description: Compounds of this invention were determined to inhibit cholesterol absorption employing the Cholesterol Absorption Assay in Mice, below. This assay involves comparing a test compound to ezetimibe with respect to their ability to inhibit cholesterol absorption in mice.
Cholesterol Absorption Assay in Mice: C57BL/6 male mice (n=6/group), aged 10-14 weeks, were dosed orally with 0.2 ml 0.25% methyl cellulose solution with or without test compound or ezetimibe (0.12-10 mg/kg). Thirty minutes later all of the mice were dosed orally with 0.2 ml […]™ containing 2 μCi [^3H]-cholesterol per mouse. Five hours later, the animals were euthanized, and liver and blood were collected. Cholesterol counts in liver and plasma were determined, and percent inhibition of cholesterol absorption was calculated.

Structure (SMILES): O=C1[C@H](CC[C@H](O)c2ccc(F)cc2)[C@@H](c2ccc(O)cc2)N1c1ccc(F)cc1 [ezetimibe]
- inhibition of cholesterol absorption: > 90%

From US20090137546A1, “Anti-Hypercholesterolemic Compounds” (priority 2005, published 2009)
